According to the CheMixHub viscosity set:

Assay: xn = mol fraction of the nth substance listed
Conditions: 101 kPa

CC(O)CN(C)C (stereo not given) + O
viscosity [mPa·s]
Conditions | 293.15 K | 303.15 K | 308.15 K | 313.15 K | 318.15 K | 323.15 K
x1 = 0.05 | – | 2.279 | 1.935 | 1.656 | 1.441 | 1.264
x1 = 0.0997 | – | 4.278 | 3.466 | 2.852 | 2.393 | 2.027
x1 = 0.1 | 7.22 | 4.74 | – | – | – | 2.15
x1 = 0.1507 | – | 5.905 | 4.691 | 3.78 | 3.11 | 2.592
x1 = 0.2001 | 9.89 | 6.37 | – | 4.08 | – | 2.82
x1 = 0.2021 | – | 6.775 | 5.334 | 4.263 | 3.485 | 2.881
x1 = 0.2501 | – | – | 5.478 | 4.372 | 3.562 | 2.935
x1 = 0.3003 | 9.87 | 6.34 | – | 4.01 | – | 2.8
x1 = 0.3013 | – | 6.703 | 5.288 | 4.227 | 3.449 | 2.847
x1 = 0.3507 | – | 6.218 | 4.934 | – | 3.249 | 2.692
x1 = 0.3998 | 8.61 | 5.52 | – | 3.49 | – | 2.47
x1 = 0.4013 | – | 5.613 | 4.485 | 3.628 | 2.989 | –
x1 = 0.4578 | – | 4.875 | 3.936 | 3.213 | 2.674 | –
x1 = 0.4999 | 6.61 | 4.37 | – | 2.8 | – | 2.01
x1 = 0.5049 | – | 4.294 | 3.499 | 2.882 | 2.426 | –
x1 = 0.6 | 4.76 | 3.18 | – | 2.17 | – | 1.62
x1 = 0.6009 | – | 3.285 | 2.747 | 2.294 | 1.955 | –
x1 = 0.7002 | 3.38 | 2.31 | – | 1.69 | – | 1.32
x1 = 0.7054 | – | 2.482 | 2.111 | 1.807 | 1.57 | –
x1 = 0.7955 | – | 1.957 | 1.697 | 1.479 | 1.305 | –
x1 = 0.8 | 2.47 | 1.83 | – | 1.4 | – | 1.11
x1 = 0.8905 | – | 1.561 | 1.375 | 1.218 | 1.092 | –
x1 = 0.9001 | 1.94 | 1.5 | – | 1.17 | – | 0.95
x1 = 0.9564 | – | 1.347 | 1.201 | 1.077 | 0.973 | –
